Results on three compounds are retold here after PMC10656490, “Sequence-based prediction of the intrinsic solubility of peptides containing non-natural amino acids” (Nature Communications, 2023).

Where a SMILES comes first, the peptide text is derived from it. [ ]: non-standard residue; d: D form. Cha = N[C@@H](CC1CCCCC1)C(=O)O; Nle = CCCC[C@H](N)C(=O)O

Data set [1] in a line: Ammonium sulphate (AMS) precipitation relative solubility assay (18 A variants). In kind it is physicochemical. The method, then:
Relative solubility was measured using a recently developed PEG precipitation assay. For all PYY variants the standard assay worked well, and no changes had to be implemented (Fig. 2a). […] Moreover, to ensure that the results stemming from the AMS assay are consistent and reliable, we performed the 18 A experiments twice independently on different days. The results confirmed that they are indeed replicable, and we were therefore confident to use them for the validation of our approach (Supplementary Fig. 3). […] Even at final concentrations of 0.33 mg/mL (instead of 1 mg/mL) most variants remained insoluble. We used ultracentrifugation to determine the relative solubilities of the GLP-1 variants (Table 3). To confirm the reliability of this method we replicated the results on a different day with the same stock solutions (Supplementary Fig. 4).
Aliquots of 1 mg were prepared from the purified and lyophilised stocks. […] Briefly, a precipitant is titrated in increasing concentration to a fixed concentration of protein to induce precipitation of the protein. The samples are incubated for 48 h at 4° after mixing. The samples are centrifuged and the remaining protein concentration is measured in the supernatant using a plate reader. PYY and 18 A variants were dissolved in 10 mM citrate 10 mM phosphate buffer at pH 7 for a final concentration of 3 mg/mL. The assay was run with 50% 6000 PEG for PYY and with 3.8 M AMS for 18 A. To improve throughput, a multichannel robot was employed to measure several peptides at once with the workflow being kept the same as described previously. […] 120 µL of each sample were centrifuged using an OptimaTLX Ultracentrifuge and spinning for 30 min at 500,000 g at 4 °C. The supernatant was removed, and the peptide concentration was measured using a NanoDrop.

The conditions of data set [2]: cited from earlier work.

As for `CCCC[C@H](NC(=O)[C@H](CCC(=O)O)NC(=O)[C@H](CCCCN)NC(=O)[C@H](Cc1ccccc1)NC(=O)[C@H](CCCCN)NC(=O)[C@H](CCC(=O)O)NC(=O)[C@H](C)NC(=O)[C@@H](NC(=O)[C@H](CCCCN)NC(=O)[C@H](CC(=O)O)NC(=O)[C@H](Cc1ccc(O)cc1)NC(=O)[C@H](Cc1ccccc1)NC(=O)[C@H](CC1CCCCC1)NC(=O)[C@H](CCCCN)NC(=O)[C@H](Cc1ccccc1)NC(=O)[C@H](Cc1c[nH]c2ccccc12)NC(=O)[C@H](CC(=O)O)NC(C)=O)C(C)C)C(=O)N[C@@H](Cc1ccccc1)C(N)=O` [Compound 18] (Ac-DWFK[Cha]FYDKVAEKFKE[Nle]F-NH2), in data set [1] (18 A variants, pH 7), the “solubility of 18 A variants (in words)” value is reported as “completely insoluble”.
In the case of `CCCC[C@H](NC(=O)[C@H](CCCCN)NC(=O)[C@H](CCC(=O)O)NC(=O)[C@H](C)NC(=O)[C@@H](NC(=O)[C@H](CCCCN)NC(=O)[C@H](CC(=O)O)NC(=O)[C@H](Cc1ccc(O)cc1)NC(=O)[C@H](Cc1ccccc1)NC(=O)[C@H](C)NC(=O)[C@H](CCCCN)NC(=O)[C@H](CCCCNC(C)=O)NC(=O)[C@H](Cc1c[nH]c2ccccc12)NC(=O)[C@H](CC(=O)O)NC(C)=O)C(C)C)C(=O)N[C@@H](CCCCN)C(=O)N[C@@H](CCC(=O)O)C(=O)N[C@@H](C)C(=O)N[C@@H](Cc1ccccc1)C(N)=O` [Nac, Nle] (Ac-DWK(Ac)KAFYDKVAEK[Nle]KEAF-NH2), the PEG1/2 in data set [1] (18A variants, Figure 3b) was 2.52. For the same compound, the “Second Run” value in data set [1] (18A variants, precipitation midpoint, second run, Figure S3) is 1.409.
Take “PYY: gut hormone with a length of 36 amino acids”: the half-life entry in data set [2] was “approximately 10 minutes”.
